The source of these data is patent publication US20260028334A1, “N-(3-(BENZO[B]THIOPHENE-2-CARBOXAMIDO)-PHENYL)-2,3-DIHYDROBENZO[B][1,4]DIOXINE-6-CARBOXAMIDE DERIVATIVES AND RELATED COMPOUNDS AS LACTATE/ATP PRODUCTION INHIBITORS FOR THE TREATMENT OF CANCER” (WMT Aktiengesellschaft, priority 2022, published 2026).

Holding throughout (type): cell-based
The subject of assay [1] is HeLa, 4T1, LLC1, A549, MDA-MB-231 and MiaPaCa2 cells. The assay can be described thus: Assay for inhibition of ATP production (FIG. 1). As to conditions: 48 hours treatment, 1.5 to 10000 nM. The protocol: The assay determines the amount of ATP in cells in culture.
Cells were plated at 4,000 per well in 96-well plate in a medium of high glucose DMEM (PAN) supplemented with 10% FBS (PAN), 2 mM glutamine-alanine (PAN), 2 mM pyruvate (Sigma) and 10 mL/L penicillin-streptomycin and grown at 37° C. in 0.5% O2, 5% CO2 and 75% humidity. For hypoxia, cells were grown and treated in the Whitley H35 Hypoxystation (Don Whitley Scientific) at 37° C. in 0.5% O2, 5% CO2 and 75% humidity. The next day, cells were induced with test compounds (FIG. 1: compounds of examples 3/16, 3/8, 10 at 10000, 3333, 1111, 370, 123, 41, 14, 5 and 1.5 nM; FIGS. 8A and 8B: compounds of example 3/19, 30 and 30/2 at 10000, 3333, 1111, 370, 123, 41, 14, 5 and 1.5 nM), as well as with vehicle (DMSO) only, for 48 hours. After this time, the medium was removed from the cells and intracellular ATP levels were determined using the Promega CellTiter-Glo 2.0 assay protocol (Promega, G9241). To estimate the effect of compounds on the ATP production, sample values were compared to the values of DMSO only. IC50 values were generated by plotting the luciferase counts against compound concentration.

The next assay relates to Panc02 and SKOV3 cells. The assay can be described thus: Lactate production inhibition assay (FIGS. 8C and 8D). As to conditions: 48 hours treatment, 1.5 to 10000 nM. An excerpt: (§1) Recombinant Lactate Dehydrogenase A (LDHA) was used to convert lactate in tissue culture supernatants to pyruvate, with the concomitant reduction of NAD^+ to NADH. The electron acceptor 1-methoxyphenazine methosulfate (MPMS) was then reduced by the generated NADH, thereby regenerating NAD+. Reduced 1-methoxyphenazine methosulfate is used in turn to reduce Water Soluble Tetrazolium 8 (WST8) to an orange WST8 formazan product. The assay is adapted from the publication “Application of WST-8 based colorimetric NAD(P)H detection for quantitative dehydrogenase assays” described in Chamchoy et al., BMC Biochemistry (2019) 20(1):4.
Cells were plated at 4,000 per well in 96-well plate in a medium of high glucose DMEM (PAN) supplemented with 10% FBS (PAN), 2 mM glutamine-alanine (PAN), 2 mM pyruvate (Sigma) and 10 mL/L penicillin-streptomycin (PAN) and grown at 37° C. in 0.5% O2, 5% CO2 and 75% humidity. For hypoxia, cells were grown and treated in the Whitley H35 Hypoxystation (Don Whitley Scientific) at 37° C. in 0.5% O2, 5% CO2 and 75% humidity. The next day, cells were induced with test compounds (FIG. 2: compounds of examples 3/16, 3/8, 10 at 10000, 3333, 1111, 370, 123, 41, 14, 5 and 1.5 nM; FIG. 7: compounds of examples 3/16, 3/8, 10 at 41, 14, 4.6 nM and Phenformin at 100, 50, 25, 12.5, 6.25 μM; FIGS. 8C and 8D: compounds of example 3/16, 3/8, 10, 3/19, 30 and 30/2 at 10000, 3333, 1111, 370, 123, 41, 14, 5 and 1.5 nM), as well as with vehicle (DMSO) only, for 48 hours. After this time, the medium was removed from the cells to measure extracellular lactate. To detect extracellular lactate, cell supernatants are diluted 1:5 in assay buffer (0.2 M tris, pH 8.2) by adding 10 μl cell supernatant+40 μl buffer in a 96-well plate. Assay substrate mix is prepared by adding NAD+ (3.75 mM), WST-8 (0.9 mM), MPMS (10 mM) and recombinant LDHA, expressed in E. coli as an N-terminal hexahistidine tagged fusion protein, is added to a final concentration of 0.8 μg/ml in assay buffer. Thereafter, 80 μl of substrate mix is added to 20 μl of diluted cell supernatant in a 96-well flat-bottomed plate and the absorbance at 460 nm determined at one minute intervals over a 30 minute period. A standard curve of known lactate concentrations of 10, 8, 6, 4, 1, 0.5 and 0.25 mM was constructed for each assay plate.

In a further assay the test system is HeLa cells. The assay can be described thus: Lactate production inhibition assay, co-treatment with phenformin (FIG. 7). As to conditions: 48 hours co-treatment of phenformin (6.25-100 μM) with compound at 41, 14, 4.6 nM.
Text: as §1
Cells were plated at 4,000 per well in 96-well plate in a medium of high glucose DMEM (PAN) supplemented with 10% FBS (PAN), 2 mM glutamine-alanine (PAN), 2 mM pyruvate (Sigma) and 10 mL/L penicillin-streptomycin (PAN) and grown at 37° C. in 0.5% O2, 5% CO2 and 75% humidity. For hypoxia, cells were grown and treated in the Whitley H35 Hypoxystation (Don Whitley Scientific) at 37° C. in 0.5% O2, 5% CO2 and 75% humidity. […] Thereafter, 80 μl of substrate mix is added to 20 μl of diluted cell supernatant in a 96-well flat-bottomed plate and the absorbance at 460 nm determined at one minute intervals over a 30 minute period. […]

The test system of assay [2] is HeLa cell line expressing GFP-LC3. The assay can be described thus: Determination of autophagic flux. As to conditions: HeLa GFP-LC3 reporter cells, 24 hours of treatment, flow cytometry, FIG. 6. An excerpt: A HeLa cell line stably expressing an artificial protein construct consisting of Green Fluorescent Protein (GFP) as an N-terminal fusion to the human full-length LC3 protein, placed in front of a Red Fluorescent Protein (RFP) as an N terminal fusion to human LC3 lacking its C-terminal Glycine residue (LC3DG), was used to determine autophagic flux (Kaizuka et al., Mol. Cell (2016) 17 835-849) This construct is cleaved in cells by ATG4 at the C-terminus of the full-length LC3 protein, whereupon the GFP-LC3 fragment becomes conjugated to phosphatidyl ethanolamine. The RFP-LC3DG cannot be lipidated, and can be used as an internal reference to produce ratiometric values reporting autophagic flux. The lipidated GFP-LC3 protein becomes incorporated into the membrane of autophagosomes, and upon fusion with lysosomes, is degraded. Consequently, cells with a high autophagic flux have less GFP-LC3, whereas a low autophagic flux results in a relatively higher intracellular amount of GFP-LC3.
Reporter cells were grown as sub-confluent cultures and test compounds were applied at various concentrations. Thapsigargin, a known inducer of autophagy, was used as a positive control. After 24 hours of treatment, a single-cell suspension was prepared by trypsinization, and the GFP fluorescence determined by flow cytometry. A minimum of 10,000 single cells were evaluated for each condition.
(In general: A flow cytometer gives signals particle by particle.)

As for `O=C(Nc1ccc(F)c(NC(=O)c2cc3ccc(OCCCN4CCCC4)cc3s2)c1)c1ccc2c(c1)OCCO2` [3/8], the ATP production level entry in assay [1] is given as “dose-dependent reduction”. Further, the lactate levels result is “dose-dependent downregulation” with Panc02 and SKOV3 cells; “downregulation” in the assay with HeLa cells. In assay [2], the autophagic flux entry is reported as “significantly enhance”.

For `Cc1ccc(NC(=O)c2ccc3c(c2)OCCO3)cc1NC(=O)c1cc2cccnc2s1` [3/16], in assay [1], the ATP production level entry is “dose-dependent reduction”. Besides, the lactate levels entry was “dose-dependent downregulation” in the assay on Panc02 and SKOV3 cells; “downregulation” with HeLa cells. Further, in assay [2], the autophagic flux entry is on record as “significantly enhance”.
